Holding throughout (assay type): physicochemical
Data set [1] in a line: Specific gravity of oils and surfactants.
Data set [2] can be described thus: Oil or surfactant adsorption capacity on Sample S1 (ASTM D281 titration). On the procedure: Procedure: 2 to 5 g (based on bulk density) of the solid carrier material was placed in a 100 ml beaker and the oil or surfactant was added drop wise from a Burette, while mixing with spatula according to ASTM […]. The addition of oil or surfactant was continued until a thick paste-like mass formation. The addition of oil or surfactant was stopped when the mass appeared to contain excess oil. The Burette reading was recorded when the mass contained no excess oil or surfactant. The adsorption capacity was calculated using the below equation: [formula]

Data set [3] in a line: Oil release (Tocopherol) from tablets, dissolution with HPLC. To be noted: at 45 min, from tablets of Tocopherol loaded silica S2, 100 mg Tocopherol per tablet. How it is done: Oil Release (Tocopherol) from Tablets: The carrier materials used in the following trials was the material designated S2 in Example 1. Tocopherol was the liquid lipid that was loaded on to the silica. Silica S2 was loaded with liquid lipid pursuant to method of Example 8 and was used as the oil loaded carrier component in tablet. Tablets were prepared pursuant to the method in example 10. Tochopherol concentration in the tablet was 100 mg.
Tablets prepared were subjected to dissolution studies pursuant to the method described in Example 8. An aliquot of 2 mL was withdrawn at predetermined time interval and filtered through 0.22μ membrane filter. The dissolution samples were analyzed by using HPLC (Waters UPLC Wavelength: 294 nm Column: Rocket Format, 53×7 mm, 3μ) Mobile Phase: 85% ACN: 10% MeOH: 5% H2O.)

The mark [4] stands for this setting: oil adsorbed on Sample S1 material.

This note sets out measurements from US10660856B2, “Porous silica gel as a carrier for liquid technologies” (W.R. Grace & Co.-Conn., priority 2013, dated 2020).

`Cc1c(C)c2c(c(C)c1O)CCC(C)(CCCC(C)CCCC(C)CCCC(C)C)O2` (racemic) [dl-α-Tocopherol] showed a Specific gravity in data set [1] (oils, Table 2) of 0.950 g/mL. The same compound had an Adsorption capacity in data set [2] (setting [4]) of 292 g/100 g. Also, the Tocopherol release entry in data set [3] was “≈ 100%”.

On to `CCCCCCCC/C=C\CCCCCCCC(=O)O` [Oleic acid], for which the Specific gravity in data set [1] (oils, Table 2) amounted to 0.895 g/mL. In addition, the Adsorption capacity in data set [2] (setting [4]) turned out to be 300 g/100 g.

The compound `CCOCCOCCO` [Transcutol HP] had a Specific gravity in data set [1] (surfactants, Table 3) of 0.987 g/mL. This compound also showed an Adsorption capacity in data set [2] (surfactant adsorbed on Sample S1 material) of 295 g/100 g.
